Test results taken from patent publication US20220226257A1, “USE OF CANNABINOIDS IN THE TREATMENT OF COM[…] EPILEPSY” (GW Research Limited, priority 2019, published 2022).

Legend:
[1] = system: paediatric patients with epilepsy; settings: care-giver-reported, 12 weeks open label; cited from earlier work
[2] = system: epileptic male Wistar rats (RISE-SRS); settings: shown previously; cited from earlier work
[3] = system: patients with Lennox-Gastaut syndrome; experiment: Biostatistical analysis of QOLCE subscale scores versus placebo, randomised controlled trial; assay type: in vivo, human; set-up: key to Biostatistical analysis of QOL subscale score versus placebo: ↔: no change (indicated by); ↑: a difference of greater than 10 points between medians (indicated by t); this change was statistically significant (indicated by *); settings: 20 mg/kg/day
Description: The following example uses biostatistical analysis to look for trends in QOL data collected in a randomised controlled trial of cannabidiol in patients with Lennox-Gastaut syndrome.
(§1) This study was a 1:1 randomised, double-blind, 14-week comparison of cannabidiol oral solution (CBD-OS) versus placebo. The treatment period consisted of a two-week titration period followed by a 12-week maintenance period. The treatment period was followed by a 10-day taper period and a four-week follow-up period. The study aimed to determine the efficacy, safety and tolerability of 20 mg/kg/day cannabidiol compared with placebo.
(§2) The Quality of Life in Childhood Epilepsy (QOLCE) survey was used to measure multiple QOL domains. Caregivers completed the survey at baseline and after the 12 weeks of treatment. The QOLCE questionnaire assessed 91 items divided into five sub-domains: physical function; cognitive function; emotional well-being; social function and behaviour. General health was also recorded.
Table 6 below details the areas where there no change (indicated by or a difference of greater than 10 points between medians (indicated by t), and whether this change was statistically significant (indicated by *).

[4] = system: children and young adults with severe, childhood onset treatment-resistant epilepsy (TRE); experiment: Principal component analysis of QOLCE survey data, open label (expanded access) study of CBD; assay type: in vivo, human
Protocol: PCA is a useful tool to visualise relatedness between populations of data and was used in the present example to determine the symptom domains that were improved during an open label study of cannabidiol (CBD) in patients with treatment resistant epilepsy.
(§3) Children and young adults with severe, childhood onset treatment-resistant epilepsy (TRE) were tested with a highly purified extract of cannabidiol (CBD) obtained from a cannabis plant. The participants in the study were part of an expanded access compassionate use program for CBD.
(§4) All patients entered a baseline period of 4 weeks when parents/caregivers kept prospective seizure diaries, noting all countable motor seizure types.
(§5) The patients then received a highly purified CBD extract (greater than 98% CBD w/w) in sesame oil, of known and constant composition, at a dose of 5 mg/kg/day in addition to their baseline anti-epileptic drug (AED) regimen.
(§6) Laboratory testing for hematologic, liver, kidney function, and concomitant AED levels was performed at baseline, and at regular intervals throughout the 12 weeks of the study.
as §2, with “Caregivers completed the survey at baseline and after the 12 weeks of treatment.” left out, “recorded. […]” for “recorded.”

[5] = system: children and young adults with treatment resistant epilepsy associated with Dravet syndrome and Lennox-Gastaut syndrome; experiment: Principal component analysis of QOLCE survey data pooled from three randomised controlled clinical trials; assay type: in vivo, human
Description: As described in Example 1 above PCA is a useful tool to scrutinise data which have several variables. A similar analysis was undertaken on the data produced using data pooled from three randomised controlled clinical trials on children and young adults with treatment resistant epilepsy associated with Dravet syndrome (one trial) and Lennox-Gastaut syndrome (LGS) (2 trials).
In the two placebo-controlled studies of CBD as a treatment for seizures associated with LGS, cannabidiol (CBD) was used as add-on treatment in patients who were defined as treatment-resistant. Patients had previously tried and stopped using a median of 6 AEDs and were being maintained on a median of 3 AEDs.
as §1, with “The first” for “This”, “The study aimed to determine the efficacy, safety and tolerability of 20 mg/kg/day cannabidiol compared with placebo.” left out
as §2, with “Caregivers completed the survey at baseline and after the 12 weeks of treatment.” left out

[6] = system: patients suffering from epilepsy syndromes (childhood onset treatment-resistant epilepsy); experiment: Case study analysis of quality of life measures, open label study (expanded access programme); assay type: in vivo, human
Protocol: The present example provides further data on additional epilepsy syndromes which were studied as part of the expanded access programme described in Example 1.
as §3, §4, §5, §6
Table 7 below details the results obtained at the end of the study period (after between 12 and 108 weeks) from patients suffering from epilepsy syndromes in an open label study.

C=C(C)[C@@H]1CCC(C)=C[C@H]1c1c(O)cc(CCCCC)cc1O [CBD, Cannabidiol]
QOLCE areas with improvements [1]: energy/fatigue; memory; other cognitive functions; control/helplessness; social interactions; behaviour and global quality of life | cognitive performances of rats exhibiting spontaneous recurrent seizures [2]: restore the deteriorated cognitive performances | seizure ratio of rats exhibiting spontaneous recurrent seizures [2]: improved the seizure ratio | QOL domains with a significant increase above baseline ([3]; Lennox-Gastaut syndrome): memory and language | domains with a decrease in quality of life ([3]; Lennox-Gastaut syndrome): no domains where there was a decrease in quality of life | Biostatistical analysis of QOL subscale score versus placebo ([3]; QOL subscale: Anxiety): ↔ | Biostatistical analysis of QOL subscale score versus placebo ([3]; QOL subscale: Attention / concentration): ↔ | Biostatistical analysis of QOL subscale score versus placebo ([3]; QOL subscale: Behaviour): ↔ | Biostatistical analysis of QOL subscale score versus placebo ([3]; QOL subscale: Control / helplessness): ↔ | Biostatistical analysis of QOL subscale score versus placebo ([3]; QOL subscale: Depression): ↔ | Biostatistical analysis of QOL subscale score versus placebo ([3]; QOL subscale: Energy/fatigue): ↔ | Biostatistical analysis of QOL subscale score versus placebo ([3]; QOL subscale: General health): ↔ | Biostatistical analysis of QOL subscale score versus placebo ([3]; QOL subscale: Language): ↑* | Biostatistical analysis of QOL subscale score versus placebo ([3]; QOL subscale: Memory): ↑* | Biostatistical analysis of QOL subscale score versus placebo ([3]; QOL subscale: Other cognitive): ↑* | Biostatistical analysis of QOL subscale score versus placebo ([3]; QOL subscale: Physical restriction): ↔ | Biostatistical analysis of QOL subscale score versus placebo ([3]; QOL subscale: Self-esteem): ↔ | Biostatistical analysis of QOL subscale score versus placebo ([3]; QOL subscale: Social activities): ↔ | Biostatistical analysis of QOL subscale score versus placebo ([3]; QOL subscale: Social interaction): ↑ (a difference of greater than 10 points between medians (indicated by t)) | Biostatistical analysis of QOL subscale score versus placebo ([3]; QOL subscale: Stigma item): ↔ | areas where improvement was observed without an improvement of seizures ([4]; bottom right area of the biplot): control/helplessness and stigma item | areas associated with quality of life with improvements (right of the zero F1 axis) ([4]; open label study, 12 weeks, 5 to 50 mg/kg/day): attention and concentration; QOL item; energy/fatigue; control/helplessness and stigma item | areas of QOL improved despite no improvement in seizure burden [5]: memory; language; control/helplessness; stigma item and cognition | areas associated with quality of life with improvements ([5]; 10 or 20 mg/kg/day): quality of life item; general health; social interactions; social activities; attention/concentration; overall quality of life; memory; language; control/helplessness; stigma item and cognition | patients with a positive response (slightly improved; much improved or very much improved) ([6]; of the 39 patients for which data were recorded): 34 | QOL measure: Very much improved ([6]; patient 245-01, SNAP25, end of study period): ✓ | QOL measure: Very much improved ([6]; patient 245-03, FIRES, end of study period): ✓ | QOL measure: Much improved ([6]; patient 245-06, DUP15Q, end of study period): ✓ | QOL measure: Very much improved ([6]; patient 245-08, CDKL5, end of study period): ✓ | QOL measure: Very much improved ([6]; patient 245-11, CDKL5, end of study period): ✓ | QOL measure: Very much improved ([6]; patient 245-12, Aicardi, end of study period): ✓ | QOL measure: Much improved ([6]; patient 245-28, Aicardi, end of study period): ✓ | QOL measure: Much improved ([6]; patient 245-32, DUP15Q, end of study period): ✓ | QOL measure: Very much improved ([6]; patient 245-37, CDKL5, end of study period): ✓ | QOL measure: Slightly improved ([6]; patient 245-38, CDKL5, end of study period): ✓ | QOL measure: Much improved ([6]; patient 245-40, DUP15Q, end of study period): ✓ | QOL measure: Much improved ([6]; patient 245-42, DUP15Q, end of study period): ✓ | QOL measure: Slightly improved ([6]; patient 245-43, DUP15Q, end of study period): ✓ | QOL measure: Slightly improved ([6]; patient 245-45, CDKL5, end of study period): ✓ | QOL measure: Very much improved ([6]; patient 245-47, CDKL5, end of study period): ✓ | QOL measure: Very much improved ([6]; patient 245-48, CDKL5, end of study period): ✓ | QOL measure: Slightly worse ([6]; patient 245-56, CDKL5, end of study period): ✓ | QOL measure: Much improved ([6]; patient 245-57, Aicardi, end of study period): ✓ | QOL measure: Much improved ([6]; patient FIL-01, Aicardi, end of study period): ✓ | QOL measure: Very much improved ([6]; patient FIL-09, Doose, end of study period): ✓ | QOL measure: Much improved ([6]; patient FIL-14, Doose, end of study period): ✓ | QOL measure: Slightly worse ([6]; patient FIL-25, Aicardi, end of study period): ✓ | QOL measure: No change ([6]; patient FLAM-25, Tuberous sclerosis, end of study period): ✓ | QOL measure: Very much improved ([6]; patient LCH-04, Aicardi, end of study period): ✓ | QOL measure: No change ([6]; patient LCH-08, Aicardi, end of study period): ✓ | QOL measure: Very much improved ([6]; patient LCH-12, Aicardi, end of study period): ✓ | QOL measure: Very much improved ([6]; patient LCH-18, FIRES, end of study period): ✓ | QOL measure: Very much improved ([6]; patient LCH-21, CDKL5, end of study period): ✓ | QOL measure: Very much improved ([6]; patient LCH-22, Tuberous sclerosis, end of study period): ✓ | QOL measure: Much worse ([6]; patient MAR-E1, FIRES, end of study period): ✓ | QOL measure: Very much improved ([6]; patient MAR-E2, FIRES, end of study period): ✓ | QOL measure: Very much improved ([6]; patient PAT-10, Aicardi, end of study period): ✓ | QOL measure: Very much improved ([6]; patient PAT-11, Aicardi, end of study period): ✓ | QOL measure: Very much improved ([6]; patient PAT-21, Aicardi, end of study period): ✓ | QOL measure: Much improved ([6]; patient PAT-26, Aicardi, end of study period): ✓ | QOL measure: Much improved ([6]; patient WIL-02, Sturge Weber, end of study period): ✓ | QOL measure: Much improved ([6]; patient WIL-05, Doose, end of study period): ✓ | QOL measure: Much improved ([6]; patient WIL-09, CDKL5, end of study period): ✓ | QOL measure: Much improved ([6]; patient WIL-10, Angelman, end of study period): ✓ | quality of life in patients with additional epilepsy syndromes ([6]; tuberous sclerosis, CDKL5, Sturge Weber, Doose, Angelman, SNAP25, FIRES, DUP15Q, Aicardi): observable improvement in quality of life
